According to US8815869B2, “Lactam acetamides as calcium channel blockers” (AbbVie Inc., priority 2010, dated 2014):

Assays:
[1] = molecular target: T1, Human Cav3.2 (Homo sapiens, UniProt O95180); assay: Electrophysiologic (whole-cell patch-clamp) assessment of calcium channel activity, HEK293 cells stably expressing hCav3.2; format: cell-based; conditions: −77 mV, GeoMean
T1 construct: expressed in transfected cells
Protocol: (ii) In Vitro Methods—Electrophysiologic Assessment of Calcium Channel Activity
Patch-clamp recordings were performed using HEK293 cells stably expressing hCav3.2. Cells were plated in T175 flasks and grown at 37° C. and under 5% CO2 to approximately 50% confluency. On the day of the experiment, cells were harvested with Detachin™ cell detachment solution (Genlantis, San Diego, Calif.) and maintained in serum-free culture medium supplemented with 25 mM HEPES up to several hours prior to experiment. Whole-cell patch-clamp recordings were obtained using extracellular saline consisting of (mM): 87.5 CsCl, 40 TEA-Cl, 5 CaCl2, 1 MgCl2, 10 HEPES, 10 glucose. The pH was adjusted to 7.2 with CsOH and the osmolarity was adjusted to approximately 310 mOsm with sucrose. Intracellular solution consisted of (mM): 112 CsCl, 27 CsF, 2 NaCl, 8.2 EGTA, 10 HEPES. Prior to an experiment 4 mM Mg2ATP was added and the pH was adjusted to 7.2 with CsOH with an osmolarity of approximately 290 mOsm. A two-pulse voltage protocol was utilized to assess compound inhibition. First, cells were held with an 8 second pre-pulse at −100 mV prior to a 160 millisecond test pulse to −30 mV. This was followed by an 8 second pre-pulse at approximately −75 mV prior to a […] test pulse to −30 mV. Increasing concentrations of antagonist were applied to individual cells in a multi-addition format with 5 minutes in each test concentration. For each cell, responses were normalized to dimethyl sulfoxide vehicle control to generate concentration-response curves.

[2] = system: Sprague Dawley rats; assay: Capsaicin induced secondary mechanical hyperalgesia model; format: in vivo; conditions: po, 1 h; 30 mg/kg p.o., 60 minutes before testing; relative to vehicle; secondary mechanical hyperalgesia 180 minutes after capsaicin; rat
Protocol: (iii) In Vivo Data—Capsaicin Induced Secondary Mechanical Hyperalgesia Model
Sprague Dawley rats were briefly restrained, and capsaicin was administered at 10 μg in 10 μL of vehicle by intraplantar injection into the center of the right hind paw. Secondary mechanical hyperalgesia (SMH) was measured at the heel away from the site of injection 180 minutes following capsaicin exposure. Compounds and gabapentin (positive control), were administered p.o. 60 minutes before testing (2 hours after capsaicin) or i.p. 30 minutes before testing (2.5 hours after capsaicin). SMH was measured using calibrated von Frey filaments (Stoelting, Woodale, Ill.). Following the 1 hour habituation in the testing room, rats were moved to individual plexiglass chambers that sit on top of a wire mesh to allow for access for stimulation of the plantar surface of the hind paws. Rats were allowed to acclimate to the new chambers for 15 minutes before the onset of testing. The paw withdrawal threshold was determined by increasing and decreasing stimulus intensity (force: g) and calculated using Dixon's up-down method (Chaplan, S R; et al. J. Neuroscience Methods 1994; 53: 55-63). The filaments (maximum force of 15.0 g) were held in place for 8 seconds or until there was a withdrawal response from the mechanical stimulation.

T1 sequence (O95180 whole entry): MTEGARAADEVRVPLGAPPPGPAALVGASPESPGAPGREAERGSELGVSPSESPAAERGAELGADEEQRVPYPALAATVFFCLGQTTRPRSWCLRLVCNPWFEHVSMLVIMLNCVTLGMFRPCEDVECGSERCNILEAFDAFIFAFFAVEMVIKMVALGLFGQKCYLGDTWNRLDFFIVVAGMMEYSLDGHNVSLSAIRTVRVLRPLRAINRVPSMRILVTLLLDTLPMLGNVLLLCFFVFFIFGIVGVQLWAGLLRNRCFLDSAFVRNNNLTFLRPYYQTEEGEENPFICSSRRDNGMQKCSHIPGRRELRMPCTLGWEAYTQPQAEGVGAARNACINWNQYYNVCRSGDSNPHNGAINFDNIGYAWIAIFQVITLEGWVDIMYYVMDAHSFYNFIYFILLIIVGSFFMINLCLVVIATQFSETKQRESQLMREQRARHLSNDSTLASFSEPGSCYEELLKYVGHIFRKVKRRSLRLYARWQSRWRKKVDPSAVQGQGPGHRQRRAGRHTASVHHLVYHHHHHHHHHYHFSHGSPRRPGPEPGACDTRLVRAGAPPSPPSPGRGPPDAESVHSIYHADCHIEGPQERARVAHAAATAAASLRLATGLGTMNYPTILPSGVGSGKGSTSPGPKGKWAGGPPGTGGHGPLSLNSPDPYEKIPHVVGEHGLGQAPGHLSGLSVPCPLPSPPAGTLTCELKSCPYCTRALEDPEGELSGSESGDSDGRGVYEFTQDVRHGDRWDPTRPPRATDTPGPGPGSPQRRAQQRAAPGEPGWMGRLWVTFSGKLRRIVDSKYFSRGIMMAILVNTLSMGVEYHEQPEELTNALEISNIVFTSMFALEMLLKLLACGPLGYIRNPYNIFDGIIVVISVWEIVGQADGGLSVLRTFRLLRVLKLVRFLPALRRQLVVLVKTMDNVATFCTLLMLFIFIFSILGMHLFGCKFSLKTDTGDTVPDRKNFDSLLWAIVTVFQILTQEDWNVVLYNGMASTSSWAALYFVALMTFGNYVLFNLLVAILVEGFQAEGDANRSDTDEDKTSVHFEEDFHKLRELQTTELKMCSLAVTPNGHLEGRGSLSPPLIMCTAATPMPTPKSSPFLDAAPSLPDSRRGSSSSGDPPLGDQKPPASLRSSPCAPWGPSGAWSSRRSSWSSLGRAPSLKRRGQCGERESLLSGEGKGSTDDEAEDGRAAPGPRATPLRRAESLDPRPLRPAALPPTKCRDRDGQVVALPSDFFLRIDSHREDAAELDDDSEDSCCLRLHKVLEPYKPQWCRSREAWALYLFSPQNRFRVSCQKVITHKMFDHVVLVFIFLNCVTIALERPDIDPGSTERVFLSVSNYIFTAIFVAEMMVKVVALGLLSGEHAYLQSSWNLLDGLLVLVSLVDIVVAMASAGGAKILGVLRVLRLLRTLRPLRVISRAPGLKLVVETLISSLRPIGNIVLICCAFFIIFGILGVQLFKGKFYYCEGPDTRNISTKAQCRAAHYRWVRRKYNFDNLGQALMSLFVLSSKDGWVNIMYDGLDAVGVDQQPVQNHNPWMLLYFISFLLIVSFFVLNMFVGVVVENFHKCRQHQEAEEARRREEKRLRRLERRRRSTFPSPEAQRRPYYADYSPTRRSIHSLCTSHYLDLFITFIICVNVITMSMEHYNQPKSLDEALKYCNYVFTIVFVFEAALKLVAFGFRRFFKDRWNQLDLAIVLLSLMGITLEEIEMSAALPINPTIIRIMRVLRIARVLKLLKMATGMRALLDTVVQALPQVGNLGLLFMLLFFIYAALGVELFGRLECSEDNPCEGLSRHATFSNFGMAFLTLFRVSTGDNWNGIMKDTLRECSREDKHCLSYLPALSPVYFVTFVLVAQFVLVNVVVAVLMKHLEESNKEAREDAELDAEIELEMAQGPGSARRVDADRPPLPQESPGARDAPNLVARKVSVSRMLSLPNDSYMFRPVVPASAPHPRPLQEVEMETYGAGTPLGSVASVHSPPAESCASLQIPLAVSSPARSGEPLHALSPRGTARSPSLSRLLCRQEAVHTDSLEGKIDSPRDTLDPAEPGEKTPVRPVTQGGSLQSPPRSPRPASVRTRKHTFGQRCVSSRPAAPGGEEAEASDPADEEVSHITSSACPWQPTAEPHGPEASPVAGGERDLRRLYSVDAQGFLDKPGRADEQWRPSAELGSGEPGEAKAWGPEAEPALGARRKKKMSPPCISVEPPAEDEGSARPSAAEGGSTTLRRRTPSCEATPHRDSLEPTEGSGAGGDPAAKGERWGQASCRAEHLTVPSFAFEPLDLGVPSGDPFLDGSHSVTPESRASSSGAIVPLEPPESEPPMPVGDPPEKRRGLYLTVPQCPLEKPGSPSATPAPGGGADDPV

IC50 [1] | SMILES | inhibition in vivo at 30 mg/kg [2]
7.75 µM | O=C(CN1CCC(c2ccc(F)cc2)(c2ccc(F)cc2)C1=O)N1CCNCC1 [Example 14, 3,3-Bis(4-fluorophenyl)-1-(2-oxo-2-piperazin-1-ylethyl)pyrrolidin-2-one] | 52%
> 10 µM | O=C1CN(C(=O)CN2CCCC(c3ccccc3)(c3ccccc3)C2=O)CCN1 [Example 10, 4-[(2-Oxo-3,3-diphenylpiperidin-1-yl)acetyl]piperazin-2-one] | –
3.6 µM | O=C(CN1CCCC(c2ccccc2)(c2ccccc2)C1=O)N1C[C@@H]2CN[C@@H](C2)C1 (relative stereo) [Example 13, 1-{2-[(1S*,5S*)-3,6-Diazabicyclo[3.2.1]oct-3-yl]-2-oxoethyl}-3,3-diphenylpiperidin-2-one] | 60%
5.86 µM | O=C(CN1CCCC(c2ccccc2)(c2ccccc2)C1=O)NC[C@@H]1CCCN1 [Example 9, 2-(2-Oxo-3,3-diphenylpiperidin-1-yl)-N-[(2S)-pyrrolidin-2-ylmethyl]acetamide] | –
9.1 µM | O=C(CN1CCC(c2ccc(F)cc2)(c2ccc(F)cc2)C1=O)N(C1CCC1)C1CCNCC1 [Example 18, 2-[3,3-Bis(4-fluorophenyl)-2-oxopyrrolidin-1-yl]-N-cyclobutyl-N-piperidin-4-ylacetamide] | 5%
1 µM | O=C(CN1CCC(c2ccccc2)(c2ccccc2)C1=O)N1CCN(C2CCCCC2)CC1 [Example 21, 1-[2-(4-Cyclohexylpiperazin-1-yl)-2-oxoethyl]-3,3-diphenylpyrrolidin-2-one] | –
> 10 µM | CN1CCN(C(=O)CN2CCCC(c3ccccc3)(c3ccccc3)C2=O)CC1 [Example 22, 1-[2-(4-Methylpiperazin-1-yl)-2-oxoethyl]-3,3-diphenylpiperidin-2-one] | –
2.16 µM | O=C(CN1CCC(c2ccc(F)cc2)(c2ccc(F)cc2)C1=O)N1CCN2CCC[C@@H]2C1 [Example 15, 3,3-Bis(4-fluorophenyl)-1-{2-[(8aR)-hexahydropyrrolo[1,2-a]pyrazin-2(1H)-yl]-2-oxoethyl}pyrrolidin-2-one] | –
> 10 µM | O=C(CN1CCCC(c2ccccc2)(c2ccccc2)C1=O)N1CCNCC1 [Example 12, 1-(2-Oxo-2-piperazin-1-ylethyl)-3,3-diphenylpiperidin-2-one] | 41%
1.1 µM | O=C(CN1CCC(c2ccc(F)cc2)(c2ccc(F)cc2)C1=O)N(C1CCCC1)C1CCNCC1 [Example 19, 2-[3,3-Bis(4-fluorophenyl)-2-oxopyrrolidin-1-yl]-N-cyclopentyl-N-piperidin-4-ylacetamide] | –
0.56 µM | O=C(CN1CCCC(c2ccccc2)(c2ccccc2)C1=O)NC1CNC1 [Example 11, N-Azetidin-3-yl-2-(2-oxo-3,3-diphenylpiperidin-1-yl)acetamide] | –
4.07 µM | O=C(CN1CCC(c2ccc(F)cc2)(c2ccc(F)cc2)C1=O)N(C1CCNCC1)C1CC1 [Example 17, 2-[3,3-Bis(4-fluorophenyl)-2-oxopyrrolidin-1-yl]-N-cyclopropyl-N-piperidin-4-ylacetamide] | –
0.82 µM | O=C(CN1CCC(c2ccc(F)cc2)(c2ccc(F)cc2)C1=O)NC1CNC1 [Example 16, N-Azetidin-3-yl-2-[3,3-bis(4-fluorophenyl)-2-oxopyrrolidin-1-yl]acetamide] | –

Further lines, the compound ahead of its results:

SMILES | IC50 [1] | inhibition in vivo at 30 mg/kg [2]
O=C(CN1CCCC(c2ccc(F)cc2)(c2ccc(F)cc2)C1=O)N1CCNCC1 [Example 23, 3,3-Bis(4-fluorophenyl)-1-(2-oxo-2-piperazin-1-ylethyl)piperidin-2-one] | – | -2%
CC1(C)C(=O)NCCN1C(=O)CN1CCCC(c2ccccc2)(c2ccccc2)C1=O [Example 2, 3,3-Dimethyl-4-[(2-oxo-3,3-diphenylpiperidin-1-yl)acetyl]piperazin-2-one] | 2.77 µM | –
O=C(CN1CCCC(c2ccccc2)(c2ccccc2)C1=O)N1C[C@@H]2CCCN[C@@H]2C1 [Example 3, 1-{2-[(4aS,7aS)-Octahydro-6H-pyrrolo[3,4-b]pyridin-6-yl]-2-oxoethyl}-3,3-diphenylpiperidin-2-one] | 4.35 µM | 31%
O=C(CN1CCCC(c2ccccc2)(c2ccccc2)C1=O)NC1CCNCC1 [Example 1, 2-(2-Oxo-3,3-diphenylpiperidin-1-yl)-N-(piperidin-4-yl)acetamide] | > 10 µM | –
O=C(CN1CCCC(c2ccccc2)(c2ccccc2)C1=O)N1CC2(CCNCC2)C1 [Example 7, 1-[2-(2,7-Diazaspiro[3.5]non-2-yl)-2-oxoethyl]-3,3-diphenylpiperidin-2-one] | 5.8 µM | 19%
O=C(CN1CCCC(c2ccccc2)(c2ccccc2)C1=O)NC[C@H]1CCCN1 [Example 8, 2-(2-Oxo-3,3-diphenylpiperidin-1-yl)-N-[(2R)-pyrrolidin-2-ylmethyl]acetamide] | > 10 µM | –
O=C(CN1CCCC(c2ccccc2)(c2ccccc2)C1=O)N1CC2CNCC2C1 (stereo not shown) [Example 6, 1-(2-Hexahydropyrrolo[3,4-c]pyrrol-2(1H)-yl-2-oxoethyl)-3,3-diphenylpiperidin-2-one] | 5.31 µM | 74%
O=C(CN1CCC(c2ccccc2)(c2ccccc2)C1=O)N1CCNCC1 [Example 24, 1-(2-Oxo-2-piperazin-1-ylethyl)-3,3-diphenylpyrrolidin-2-one] | – | 52%
O=C(CN1CCCC(c2ccccc2)(c2ccccc2)C1=O)N1CCC[C@H]2CNC[C@H]21 [Example 5, 1-{2-[(4aS,7aS)-Octahydro-1H-pyrrolo[3,4-b]pyridin-1-yl]-2-oxoethyl}-3,3-diphenylpiperidin-2-one] | 1.6 µM | –
O=C(CN1CCCC(c2ccccc2)(c2ccccc2)C1=O)N1C[C@H]2CCCN[C@H]2C1 [Example 4, 1-{2-[(4aR,7aR)-Octahydro-6H-pyrrolo[3,4-b]pyridin-6-yl]-2-oxoethyl}-3,3-diphenylpiperidin-2-one] | > 10 µM | 19%
